≈ marks a conversion by molar mass, not a printed value.
Assays:
[1] = Solubility in phosphate buffer by the shake flask method; type: physicochemical; conditions: pH 7.0, 37° C., 24 h shake flask; for solubility at 24 h: 37 °C, pH 7, aqueous buffer, thermodynamic from solid
Method: The procedure described in Glomme et al. (J. Pharm. Sci. 94(1): 1-16, 2005) is followed. The concentration determination is carried out by HPLC with UV detection against a standard solution.
Buffer: 3.954 g of sodium dihydrogenphosphate monohydrate 6.024 g of sodium chloride +950 ml of ultrapure water. Setting of pH 7.0 using 0.1 M NaOH or 0.1 M HCl.
The samples were shaken at 37° C. and 450 rpm for 24 h. After about 7 h, the pH of the samples was checked and adjusted if necessary. It was checked whether the sample was still present in excess. Just before the end of the 24 h shaking time, the samples were again checked for pH and a precipitate.
• Ultrapure water plant: MilliQ gradient, Millipore, unit: F3PN37462D • Shaker: TiMix control, Bühler • Incubation hood: TH 15, Bühler • pH meter: 766 Calimatic Knick instrument: pH 1 • pH electrode: InLab 423 Mettler • HPLC: column: LiChroCart 125-4 LiChrospher 100 RP-18 • flow rate: 1.000 ml/min • eluents: • eluent A: 2 ml of diethylamine, for synthesis+1000 ml of methanol, LiChrosolv • eluent B: 5 g of ammonium acetate, for analysis+5 ml of methanol, LiChrosolv+995 ml of ultrapure water

TIE2 = TIE2 (Homo sapiens, UniProt Q02763); test: Inhibition of TIE2 (flashplate assay); type: biochemical; conditions: flashplate method
Outline: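 Radiometric flashplate kinase assay: TIE2 incubated 3 h at room temperature with ³³P-ATP and biotinylated poly(Glu,Tyr) 4:1, with or without test compound. Reaction stopped with EDTA, wells washed, incorporated radioactivity counted by scintillation; IC50 calculated from the data.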

insulin receptor (InsR) = target: T1, insulin receptor (InsR) (Homo sapiens, UniProt P06213); test: Inhibition of InsR (ELISA assay), insulin-stimulated autophosphorylation in cells; type: cell-based; conditions: human cells stimulated with insulin
T1 construct: endogenous in cells; host or cells: HepG2
Method: Cultivated human cells which express the insulin receptor (InsR) (for example HepG2) are stimulated using human insulin, the natural ligand of InsR. The stimulation induces autophosphorylation of tyrosine residues in the cytoplasmatic InsR domain, which triggers signal transduction cascades, which initiate various biological reactions of the cells. The amount of phosphorylated InsR is determined by a receptor-specific capture ELISA or an analogous LUMINEX assay. The InsR from cell lysates is bound to a 96-well ELISA plate or LUMINEX beads by means of a specific antibody (“capturing”), and the tyrosine phosphorylation is detected using a biotin-labelled anti-phosphotyrosine antibody and a streptavidin-peroxidase conjugate by a chemiluminescence method or by means of a fluorescence-labelled anti-phosphotyrosine antibody. For determination of the activity of kinase inhibitors, cells are pretreated with increasing concentrations of these compounds for 45 min and subsequently stimulated using insulin for 5 min. As internal control, the biological activity of the ligand insulin is checked, and a concentration series of a reference inhibitor is measured.

VEGF-2 = VEGF-2 (Homo sapiens, UniProt P35968); test: Inhibition of VEGF-2 (flashplate assay); type: biochemical; conditions: flashplate method
Outline: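 Kinase incubated 3 hr at room temperature with ^33P-ATP and biotinylated poly(Glu, Tyr)4:1, with or without test substance. Stopped with EDTA, wells washed after 30 min; incorporated radioactivity counted by scintillation and IC50 calculated.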

SGK1 = target: T2, SGK1 (Homo sapiens, UniProt O00141); test: Inhibition of SGK1 (flashplate assay); type: biochemical; conditions: flashplate method
T2 sequence (O00141 1-431): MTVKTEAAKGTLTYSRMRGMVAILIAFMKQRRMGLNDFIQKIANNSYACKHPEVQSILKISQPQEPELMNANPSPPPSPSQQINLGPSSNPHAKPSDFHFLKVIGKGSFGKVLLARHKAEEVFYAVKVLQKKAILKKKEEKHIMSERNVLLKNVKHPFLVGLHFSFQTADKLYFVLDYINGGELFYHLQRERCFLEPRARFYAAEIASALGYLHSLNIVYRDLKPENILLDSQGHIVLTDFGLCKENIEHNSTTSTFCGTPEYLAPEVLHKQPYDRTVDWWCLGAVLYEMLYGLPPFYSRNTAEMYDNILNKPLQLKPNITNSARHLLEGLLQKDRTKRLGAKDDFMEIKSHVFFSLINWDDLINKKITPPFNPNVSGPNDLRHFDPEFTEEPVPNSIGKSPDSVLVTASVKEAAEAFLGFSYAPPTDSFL
Method: The test plates used are 384-well flashplate microtitre plates from Perkin Elmer (USA). The components of the kinase reaction are pipetted into the assay plate. The SGK1 kinase is incubated for 3 hr. with radioactively labelled ^33P-ATP in the presence and absence of test substances in a total volume of 100 μl at room temperature together with biotinylated poly(Glu, Tyr)4:1. The reaction is terminated using 25 μl of a 200 mM EDTA solution. After incubation for a further 30 min at room temperature, the supernatants are removed by suction, and the wells are washed three times with 100 μl of 0.9% NaCl solution each time. The radioactivity is measured using a Topcount scintillation counter (PerkinElmer, USA). IC50 values are calculated using the RS1 computer program.

TIE2, sequence (Q02763 23-1124, species assumed): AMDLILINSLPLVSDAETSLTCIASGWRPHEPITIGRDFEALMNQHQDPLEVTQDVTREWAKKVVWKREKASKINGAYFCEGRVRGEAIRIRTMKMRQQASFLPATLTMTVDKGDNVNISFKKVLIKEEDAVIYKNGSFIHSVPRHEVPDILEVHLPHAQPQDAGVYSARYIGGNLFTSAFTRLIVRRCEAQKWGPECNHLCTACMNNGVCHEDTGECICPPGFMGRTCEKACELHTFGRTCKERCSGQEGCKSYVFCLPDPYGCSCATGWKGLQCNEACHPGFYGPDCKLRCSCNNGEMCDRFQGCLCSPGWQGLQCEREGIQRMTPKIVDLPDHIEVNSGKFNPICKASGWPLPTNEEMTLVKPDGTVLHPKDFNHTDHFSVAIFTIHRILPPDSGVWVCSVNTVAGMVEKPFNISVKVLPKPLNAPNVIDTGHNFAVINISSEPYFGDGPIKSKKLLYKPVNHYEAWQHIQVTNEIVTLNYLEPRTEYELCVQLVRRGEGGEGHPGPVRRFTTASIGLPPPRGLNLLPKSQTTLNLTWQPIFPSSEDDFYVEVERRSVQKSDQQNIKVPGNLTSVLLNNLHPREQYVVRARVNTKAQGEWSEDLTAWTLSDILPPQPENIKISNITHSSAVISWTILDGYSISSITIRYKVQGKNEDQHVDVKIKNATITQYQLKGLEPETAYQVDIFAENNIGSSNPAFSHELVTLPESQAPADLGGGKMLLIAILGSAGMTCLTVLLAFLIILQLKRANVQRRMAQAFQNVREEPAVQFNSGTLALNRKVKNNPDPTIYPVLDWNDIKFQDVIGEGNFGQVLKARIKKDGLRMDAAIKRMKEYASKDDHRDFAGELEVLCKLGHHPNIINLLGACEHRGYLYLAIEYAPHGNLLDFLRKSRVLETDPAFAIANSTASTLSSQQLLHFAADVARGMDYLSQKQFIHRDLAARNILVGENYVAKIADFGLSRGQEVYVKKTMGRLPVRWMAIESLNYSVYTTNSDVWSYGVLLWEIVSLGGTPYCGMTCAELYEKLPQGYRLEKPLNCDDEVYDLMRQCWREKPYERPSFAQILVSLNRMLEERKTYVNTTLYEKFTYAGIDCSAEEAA
VEGF-2, sequence (P35968 20-1356): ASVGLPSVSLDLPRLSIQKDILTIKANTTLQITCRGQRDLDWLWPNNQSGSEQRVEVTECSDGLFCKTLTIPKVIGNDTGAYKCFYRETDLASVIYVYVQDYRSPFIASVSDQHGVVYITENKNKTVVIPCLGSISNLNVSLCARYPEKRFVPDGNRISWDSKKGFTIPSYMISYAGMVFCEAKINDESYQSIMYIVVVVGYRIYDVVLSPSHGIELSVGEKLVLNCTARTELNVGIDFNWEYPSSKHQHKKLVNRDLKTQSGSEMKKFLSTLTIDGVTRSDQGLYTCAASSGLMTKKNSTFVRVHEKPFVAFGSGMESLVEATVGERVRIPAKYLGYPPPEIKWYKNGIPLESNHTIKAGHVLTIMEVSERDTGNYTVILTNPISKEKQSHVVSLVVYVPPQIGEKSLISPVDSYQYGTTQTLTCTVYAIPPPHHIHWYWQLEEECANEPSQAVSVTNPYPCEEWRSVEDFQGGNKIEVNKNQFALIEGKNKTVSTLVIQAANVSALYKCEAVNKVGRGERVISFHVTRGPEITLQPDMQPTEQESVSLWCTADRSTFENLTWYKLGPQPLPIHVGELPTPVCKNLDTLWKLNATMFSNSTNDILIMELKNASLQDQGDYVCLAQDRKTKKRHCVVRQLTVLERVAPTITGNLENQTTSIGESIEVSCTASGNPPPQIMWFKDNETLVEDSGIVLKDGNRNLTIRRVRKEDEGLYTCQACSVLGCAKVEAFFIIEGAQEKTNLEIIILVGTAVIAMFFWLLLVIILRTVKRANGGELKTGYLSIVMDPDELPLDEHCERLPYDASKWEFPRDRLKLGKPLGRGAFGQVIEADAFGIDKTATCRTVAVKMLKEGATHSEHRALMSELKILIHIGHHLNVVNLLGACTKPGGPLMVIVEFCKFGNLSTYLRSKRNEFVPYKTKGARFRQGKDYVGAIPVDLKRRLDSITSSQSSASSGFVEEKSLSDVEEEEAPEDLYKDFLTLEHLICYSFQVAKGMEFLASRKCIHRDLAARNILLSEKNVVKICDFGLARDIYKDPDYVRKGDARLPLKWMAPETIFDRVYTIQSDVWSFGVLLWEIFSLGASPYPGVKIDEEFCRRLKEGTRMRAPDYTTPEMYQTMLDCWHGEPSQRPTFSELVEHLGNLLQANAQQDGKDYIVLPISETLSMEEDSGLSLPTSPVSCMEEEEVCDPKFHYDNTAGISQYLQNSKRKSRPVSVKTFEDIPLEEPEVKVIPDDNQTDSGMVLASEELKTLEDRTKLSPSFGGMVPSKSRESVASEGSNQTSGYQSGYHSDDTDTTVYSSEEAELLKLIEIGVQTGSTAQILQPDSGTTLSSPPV
T1 sequence (P06213 28-1382): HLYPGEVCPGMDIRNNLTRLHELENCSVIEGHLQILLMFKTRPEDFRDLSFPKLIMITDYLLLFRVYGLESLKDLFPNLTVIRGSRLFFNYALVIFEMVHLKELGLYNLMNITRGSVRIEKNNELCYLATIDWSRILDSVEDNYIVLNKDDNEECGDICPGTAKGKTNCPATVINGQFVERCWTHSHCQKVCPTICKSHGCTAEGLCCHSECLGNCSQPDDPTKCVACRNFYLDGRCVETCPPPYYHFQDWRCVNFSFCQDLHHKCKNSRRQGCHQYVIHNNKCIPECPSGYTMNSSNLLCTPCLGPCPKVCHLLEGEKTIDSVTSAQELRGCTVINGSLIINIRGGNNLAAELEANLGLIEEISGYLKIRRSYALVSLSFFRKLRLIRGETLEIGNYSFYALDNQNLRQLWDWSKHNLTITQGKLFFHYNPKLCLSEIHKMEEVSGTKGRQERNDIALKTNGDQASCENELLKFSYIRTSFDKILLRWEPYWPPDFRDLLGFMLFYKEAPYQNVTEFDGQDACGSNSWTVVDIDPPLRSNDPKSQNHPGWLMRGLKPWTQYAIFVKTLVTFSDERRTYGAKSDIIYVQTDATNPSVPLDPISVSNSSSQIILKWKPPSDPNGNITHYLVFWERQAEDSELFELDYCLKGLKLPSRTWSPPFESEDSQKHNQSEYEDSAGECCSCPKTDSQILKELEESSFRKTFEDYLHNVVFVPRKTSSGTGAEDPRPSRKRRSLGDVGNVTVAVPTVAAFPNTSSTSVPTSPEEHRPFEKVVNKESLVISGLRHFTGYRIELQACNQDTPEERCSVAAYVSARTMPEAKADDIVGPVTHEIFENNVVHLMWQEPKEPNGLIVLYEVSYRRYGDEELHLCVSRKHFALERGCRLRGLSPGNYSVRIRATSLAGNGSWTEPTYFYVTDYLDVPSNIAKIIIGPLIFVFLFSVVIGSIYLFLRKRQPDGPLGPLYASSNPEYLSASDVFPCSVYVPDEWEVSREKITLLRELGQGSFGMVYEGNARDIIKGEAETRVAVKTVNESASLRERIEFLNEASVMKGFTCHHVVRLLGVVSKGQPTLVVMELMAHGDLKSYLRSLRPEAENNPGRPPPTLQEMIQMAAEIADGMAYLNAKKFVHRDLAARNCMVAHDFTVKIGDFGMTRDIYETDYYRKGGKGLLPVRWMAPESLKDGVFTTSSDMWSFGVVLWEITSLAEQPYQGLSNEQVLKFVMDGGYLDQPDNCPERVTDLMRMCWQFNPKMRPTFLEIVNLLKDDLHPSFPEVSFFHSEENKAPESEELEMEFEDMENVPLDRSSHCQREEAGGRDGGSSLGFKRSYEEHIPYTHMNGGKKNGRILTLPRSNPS

Row | solubility at 24 h [1] [µg/mL] | melting point [°C] | IC50 (TIE2) [µM] | IC50 (insulin receptor (InsR)) [µM] | IC50 (VEGF-2) [µM] | Solubility [1] [µg/mL] | Solubility ([1]; listed as 3-[4-Amino-7-(3-pyrrolidin-1-ylmethylcyclobutyl)-7H-pyrrolo[2,3-d]pyrimidin-5-yl) | IC50 (SGK1) [µM] | Compound
1 | 1070 (≈ 2.95 mM) | 193 to 194 | 0.52 | 2.1 | 0.18 | – | – | – | Nc1ncnc2c1c(-c1cccc(O)c1)cn2C1CC(CN2CCCC2)C1 (stereo not drawn) [Compound 1, 3-[4-amino-7-(3-pyrrolidin-1-ylmethylcyclobutyl)-7H-pyrrolo[2,3-d]pyrimidin-5-yl]phenol]
2 | – | – | 0.87 | – | 0.195 | 1147 (≈ 3.16 mM) | 1147 (tosylate) μg/ml | 7.4 | Nc1ncnc2c1c(-c1cccc(O)c1)cn2C1CC(CN2CCCC2)C1 (stereo not drawn) [Compound 2, 3-[4-Amino-7-(3-pyrrolidin-1-ylmethylcyclobutyl)-7H-pyrrolo[2,3-d]pyrimidin-5-yl]phenol]
3 | 1330 (≈ 3.99 mM) | 142 to 144 | 0.38 | 12 | 0.01 | – | – | – | NCC1CC(n2cc(-c3ccc4[nH]ccc4c3)c3c(N)ncnc32)C1 (stereo not drawn) [Compound 3, 7-(3-Aminomethylcyclobutyl)-5-(1H-indol-5-yl)-7H-pyrrolo[2,3-d]pyrimidin-4-ylamine]
4 | – | – | 1.1 | – | 0.16 | – | – | 6.1 | NCC1CC(n2cc(-c3cc4ccccc4o3)c3c(N)ncnc32)C1 (stereo not drawn) [Compound 37]

Reference: patent publication US20100160356A1, “NOVEL CYCLOBUTYL COMPOUNDS AS KINASE INHIBITORS” (priority 2006, published 2010)
